This is an account of results in US6214872A, “Aryloxyarylsulfonylamino hydroxamic acid derivatives” (Pfizer Inc., priority 1999, dated 2001).

Assay [1] has as its target Human recombinant MMP-13 (collagenase 3) (Homo sapiens, UniProt P45452). Briefly: Inhibition of MMP-13. The format is biochemical. The note with it: human recombinant MMP-13, fluorogenic substrate. The method, then:
Human recombinant MMP-13 is activated with 2 mM APMA (p-aminophenyl mercuric acetate) for 1.5 hours, at 37° C. and is diluted to […] in assay buffer (50 mM Tris, pH 7.5, 200 mM sodium chloride, 5 mM calcium chloride, […], 0.02% brij). Twenty-five microliters of diluted enzyme is added per well of a 96 well microfluor plate. The enzyme is then diluted in a 1:4 ratio in the assay by the addition of inhibitor and substrate to give a final concentration in the assay of […]. 10 mM stock solutions of inhibitors are made up in dimethyl sulfoxide and then diluted in assay buffer as per the inhibitor dilution scheme for inhibition of human collagenase (MMP-1): Twenty-five microliters of each concentration is added in triplicate to the microfluor plate. The final concentrations in the assay are 30 mM, 3 mM, 0.3 mM, and 0.03 mM. Substrate ([…]) is prepared as for inhibition of human collagenase (MMP-1) and […] is added to each well to give a final assay concentration of 10 mM. Fluorescence readings (360 nm excitation; 450 emission) are taken at time 0 and every 5 minutes for 1 hour. Positive controls consist of enzyme and substrate with no inhibitor and blanks consist of substrate only. IC50 's are determined as per inhibition of human collagenase (MMP-1). If IC50 's are reported to be less than […], inhibitors are then assayed at final concentrations of 0.3 mM, 0.03 mM, 0.003 mM and 0.0003 mM.

For assay [2], the target named is T1, Human Collagenase (MMP-1) (Homo sapiens, UniProt P03956).
T1 sequence (P03956 100-469): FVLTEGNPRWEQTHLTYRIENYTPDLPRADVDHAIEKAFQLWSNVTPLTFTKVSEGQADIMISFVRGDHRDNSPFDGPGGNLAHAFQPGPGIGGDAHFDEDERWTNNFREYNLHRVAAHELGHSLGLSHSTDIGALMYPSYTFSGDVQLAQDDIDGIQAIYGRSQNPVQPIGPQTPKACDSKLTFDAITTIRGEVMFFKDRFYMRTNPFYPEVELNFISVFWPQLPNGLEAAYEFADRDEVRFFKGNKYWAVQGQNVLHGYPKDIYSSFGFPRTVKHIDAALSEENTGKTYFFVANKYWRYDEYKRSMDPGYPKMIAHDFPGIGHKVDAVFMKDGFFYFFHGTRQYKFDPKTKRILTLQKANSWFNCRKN
Put plainly: Inhibition of Human Collagenase (MMP-1). The note with it: Table 1; human recombinant collagenase, fluorogenic substrate, room temperature. In kind it is biochemical. On the procedure: Human recombinant collagenase is activated with trypsin using the following ratio: 10 mg trypsin per 100 mg of collagenase. The trypsin and collagenase are incubated at room temperature for 10 minutes then a five fold excess (50 mg/10 mg trypsin) of soybean trypsin inhibitor is added. 10 mM stock solutions of inhibitors are made up in dimethyl sulfoxide and then diluted using the following Scheme: 10 mM→120 μM→12 μM→1.2 μM→0.12 μM Twenty-five microliters of each concentration is then added in triplicate to appropriate wells of a 96 well microfluor plate. The final concentration of inhibitor will be a 1:4 dilution after addition of enzyme and substrate. Positive controls (enzyme, no inhibitor) are set up in wells D1-D6 and blanks (no enzyme, no inhibitors) are set in wells D7-D12. Collagenase is diluted to 400 ng/ml and […] is then added to appropriate wells of the microfluor plate. Final concentration of collagenase in the assay is 100 ng/ml. Substrate ([…]) is made as a 5 mM stock in dimethyl sulfoxide and then diluted to […] in assay buffer. The assay is initiated by the addition of […] substrate per well of the microfluor plate to give a final concentration of 10 mM. Fluorescence readings (360 nm excitation, 460 nm emission) were taken at time 0 and then at 20 minute intervals. The assay is conducted at room temperature with a typical assay time of 3 hours. Fluorescence vs time is then plotted for both the blank and collagenase containing samples (data from triplicate determinations is averaged). […] The zero time is used as a blank for each compound at each concentration and these values are subtracted from the 120 minute data. Data is plotted as inhibitor concentration vs % control (inhibitor fluorescence divided by fluorescence of collagenase alone×100). IC50 's are determined from the concentration of inhibitor that gives a signal that is 50% of the control. If IC50 's are reported to be <0.03 mM then the inhibitors are assayed at concentrations of 0.3 mM, 0.03 mM, […] and 0.003 mM.

“And” between values parts separate entries of the source, which are not always exact repeats. Equal values may be shown once.

As for `COc1ccc(S(=O)(=O)N(CCC(=O)O)C(C)(C)C(=O)NO)cc1` [methyl, methyl, hydrogen, methoxy], the IC50 in assay [1] is 590 nM and 730 nM; in assay [2] it was 12000 nM.
For the molecule `COc1ccc(S(=O)(=O)N(CCC(=O)O)C2(C(=O)NO)CCCC2)cc1` [cyclopentyl, --, hydrogen, methoxy], the IC50 was 21 nM and 25 nM in assay [1]; 800 nM and 700 nM in assay [2].
On to `CCOC(=O)CCN(C1(C(=O)NO)CCCC1)S(=O)(=O)c1ccc(Oc2ccc(F)cc2)cc1` [Example 1, 3-[[4-(4-FLUOROPHENOXY)BENZENESULFONYL]-(1-HYDROXY-CARBAMOYL CYCLOPENTYL)AMINO]-PROPIONIC ACID ETHYL ESTER], for which the IC50 in assay [1] worked out at 0.9 nM; in assay [2] it was 100 nM.
For `COc1ccc(S(=O)(=O)N(CCC(=O)O)C(C(=O)NO)C2CCCCC2)cc1` (centres unmarked) [cyclohexyl, hydrogen, hydrogen, methoxy], the 50% inhibitory concentration (IC50) in assay [1] was 4 nM and 2 nM; in assay [2], 18 nM and 22 nM.

The IC50 is the concentration needed to halve the response being measured.
